Patent publication US10239849B2 (Merck Sharp & Dohme Corp., priority 2015, dated 2019)

Columns and labels:
[1] = target: T1, glutathione-S-transferase (GST) tagged LXRbeta LBD (ligand binding domain) (Homo sapiens, UniProt P55055); assay: LanthaScreen TR-FRET Liver X Receptor Coactivator Assay, LXR beta-LBD; assay type: biochemical; conditions: for Emax: efficacy in relation to reference dual agonist T1317, read-out: LXR beta activity at max dose (%) (Emax); for EC50: potency (Inflection Point) of co-activator recruitment, TR-FRET, read-out: LXR beta IP
T1 construct: purchased Invitrogen pv4658.pps
T1 sequence (P55055 222-460 limits assumed): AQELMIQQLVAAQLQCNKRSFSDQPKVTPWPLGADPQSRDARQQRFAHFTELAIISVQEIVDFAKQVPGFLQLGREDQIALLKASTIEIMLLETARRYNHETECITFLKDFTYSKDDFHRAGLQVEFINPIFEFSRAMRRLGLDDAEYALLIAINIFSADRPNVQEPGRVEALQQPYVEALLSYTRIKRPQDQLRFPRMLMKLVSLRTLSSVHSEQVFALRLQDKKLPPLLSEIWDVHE
Protocol: (§1) While running the LanthaScreen™ TR-FRET Liver X Receptor Coactivator Assay, LXR alpha-LBD or LXR beta-LBD was added to ligand test compounds followed by addition of a mixture of a fluorescein-labelled coactivator peptide and terbium-conjugated anti-GST antibody. After an incubation period at room temperature, TR-FRET (time-resolved fluorescence resonance energy transfer) was measured using a filter-based instrument capable of TR-FRET, e.g. PerkinElmer Envision.

[2] = target: T2, glutathione-S-transferase (GST) tagged LXRalpha LBD (ligand binding domain) (Homo sapiens, UniProt Q13133); assay: LanthaScreen TR-FRET Liver X Receptor Coactivator Assay, LXR alpha-LBD; assay type: biochemical; conditions: for Emax: efficacy in relation to reference dual agonist T1317, read-out: LXR alpha activity at max dose (%) (Emax); for EC50 / LXR alpha IP (nM): potency (Inflection Point) of co-activator recruitment, TR-FRET; for EC50: read-out: LXR alpha IP
T2 construct: purchased Invitrogen pv4655
T2 sequence (Q13133 209-447 limits assumed): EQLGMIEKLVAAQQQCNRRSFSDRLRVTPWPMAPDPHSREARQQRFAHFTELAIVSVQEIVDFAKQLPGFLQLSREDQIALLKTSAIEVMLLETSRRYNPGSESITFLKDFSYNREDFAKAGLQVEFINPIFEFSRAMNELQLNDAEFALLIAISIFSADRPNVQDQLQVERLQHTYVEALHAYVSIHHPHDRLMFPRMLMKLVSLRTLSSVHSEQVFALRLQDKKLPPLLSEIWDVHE
Protocol: as §1

SMILES | Emax [1] [%] | EC50 [1] [nM] | Emax [2] [%] | EC50 [2] [nM] | LXR alpha IP (nM) [2]
CN(C)C(=O)c1ccc(-c2cnc(N3CCN(C(=O)[C@](O)(c4ccccc4)C(F)(F)F)CC3)c(C#N)c2)cc1Cl [Example 2-2, 2-chloro-4-(5-cyano-6-{4-[(2R)-3,3,3-trifluoro-2-hydroxy-2-phenylpropanoyl]piperazin-1-yl}pyridin-3-yl)-N,N-dimethylbenzamide] | 102 | 1 | 61 | 617 | –
CCC(C)(C)C(=O)N1CCN(c2ncc(-c3ccc(C(=O)N(C)C)c(Cl)c3)cc2C#N)CC1 [Example 2-5, 2-chloro-4-{5-cyano-6-[4-(2,2-dimethylbutanoyl)piperazin-1-yl]pyridin-3-yl}-N,N-dimethylbenzamide] | 97 | 109 | 62 | 11100 | –
CN(C)C(=O)c1ccc(-c2cnc(N3CCN(C(=O)C(=O)C(F)(F)F)CC3)c(C#N)c2)cc1Cl [Example 2-9, 2-chloro-4-{5-cyano-6-[4-(3,3,3-trifluoro-2-oxopropanoyl)piperazin-1-yl]pyridin-3-yl}-N,N-dimethylbenzamide] | 99 | 245 | 42 | 16600 | –
Cc1nonc1CC(=O)N1CCN(c2ncc(-c3ccc(C(=O)N(C)C)c(Cl)c3)cc2C#N)CC1 [Example 2-10, 2-chloro-4-(5-cyano-6-{4-[(4-methyl-1,2,5-oxadiazol-3-yl)acetyl]piperazin-1-yl}pyridin-3-yl)-N,N-dimethylbenzamide] | 63 | 2330 | 10 | – | No IP
CN(C)C(=O)c1ccc(-c2cnc(N3CCN(C(=O)[C@H](O)C(F)(F)F)CC3)c(C#N)c2)cc1Cl [Example 2-11, 2-chloro-4-(5-cyano-6-{4-[(2S)-3,3,3-trifluoro-2-hydroxypropanoyl]piperazin-1-yl}pyridin-3-yl)-N,N-dimethylbenzamide] | 77 | 1060 | 30 | 27900 | –
CCCCC(C)(C)C(=O)N1CCN(c2ncc(-c3ccc(C(=O)N(C)C)c(Cl)c3)cc2C#N)CC1 [Example 2-12, 2-chloro-4-{5-cyano-6-[4-(2,2-dimethylhexanoyl)piperazin-1-yl]pyridin-3-yl}-N,N-dimethylbenzamide] | 79 | 27 | 43 | 1750 | –
CN(C)C(=O)c1ccc(-c2cnc(N3CCN(C(=O)C4Cc5ccccc54)CC3)c(C#N)c2)cc1Cl (stereo not shown) [Example 2-13, 4-{6-[4-(bicyclo[4.2.0]octa-1,3,5-trien-7-ylcarbonyl)piperazin-1-yl]-5-cyanopyridin-3-yl}-2-chloro-N,N-dimethylbenzamide] | 108 | 57 | 50 | 8050 | –
Cc1noc(C)c1CC(=O)N1CCN(c2ncc(-c3ccc(C(=O)N(C)C)c(Cl)c3)cc2C#N)CC1 [Example 2-14, 2-chloro-4-(5-cyano-6-{4-[(3,5-dimethylisoxazol-4-yl)acetyl]piperazin-1-yl}pyridin-3-yl)-N,N-dimethylbenzamide] | 77 | 1350 | 23 | – | No IP
CN(C)C(=O)c1ccc(-c2cnc(N3CCN(C(=O)[C@@](C)(O)C(F)(F)F)CC3)c(C#N)c2)cc1Cl [Example 2-15, 2-chloro-4-(5-cyano-6-{4-[(2R)-3,3,3-trifluoro-2-hydroxy-2-methylpropanoyl]piperazin-1-yl}pyridin-3-yl)-N,N-dimethylbenzamide] | 101 | 171 | 58 | 13100 | –
CCC(O)(C(=O)N1CCN(c2ncc(-c3ccc(C(=O)N(C)C)c(Cl)c3)cc2C#N)CC1)C(F)(F)F (stereo not shown) [Example 2-20, 2-chloro-4-(5-cyano-6-{4-[2-hydroxy-2-(trifluoromethyl)butanoyl]piperazin-1-yl}pyridin-3-yl)-N,N-dimethylbenzamide] | 102 | 138 | 60 | 6070 | –
CN(C)C(=O)c1ccc(-c2cnc(N3CCN(C(=O)Cc4c[nH]c5ccccc45)CC3)c(C#N)c2)cc1Cl [Example 2-22, 2-chloro-4-{5-cyano-6-[4-(1H-indol-3-ylacetyl)piperazin-1-yl]pyridin-3-yl}-N,N-dimethylbenzamide] | 83 | 186 | 54 | 30000 | –

Further lines, results first:

Emax [1] [%] | EC50 [1] [nM] | Emax [2] [%] | EC50 [2] [nM] | LXR alpha IP (nM) [2] | SMILES
105 | 56 | 67 | 4810 | – | CN(C)C(=O)c1ccc(-c2cnc(N3CCN(C(=O)C(C)(C)C)CC3)c(C#N)c2)cc1Cl [Example 2-3, 2-chloro-4-{5-cyano-6-[4-(2,2-dimethylpropanoyl)piperazin-1-yl]pyridin-3-yl}-N,N-dimethylbenzamide]
79 | 95 | 44 | 12800 | – | CN(C)C(=O)c1ccc(-c2cnc(N3CCN(C(=O)C45CC(C4)C5)CC3)c(C#N)c2)cc1Cl [Example 2-4, 4-{6-[4-(bicyclo[1.1.1]pent-1-ylcarbonyl)piperazin-1-yl]-5-cyanopyridin-3-yl}-2-chloro-N,N-dimethylbenzamide]
49 | 1560 | 16 | – | No IP | CN(C)C(=O)c1ccc(-c2cnc(N3CCN(C(=O)C4CCCCO4)CC3)c(C#N)c2)cc1Cl (stereo not shown) [Example 2-6, 2-chloro-4-{5-cyano-6-[4-(tetrahydro-2H-pyran-2-ylcarbonyl)piperazin-1-yl]pyridin-3-yl}-N,N-dimethylbenzamide]
102 | 50 | 54 | 6790 | – | CN(C)C(=O)c1ccc(-c2cnc(N3CCN(C(=O)Cc4ccccc4)CC3)c(C#N)c2)cc1Cl [Example 2-7]
46 | 4170 | 5 | – | No IP | Cc1cc(CC(=O)N2CCN(c3ncc(-c4ccc(C(=O)N(C)C)c(Cl)c4)cc3C#N)CC2)on1 [Example 2-8, 2-chloro-4-(5-cyano-6-{4-[(3-methylisoxazol-5-yl)acetyl]piperazin-1-yl}pyridin-3-yl)-N,N-dimethylbenzamide]
94 | 242 | 58 | 13000 | – | CN(C)C(=O)c1ccc(-c2cnc(N3CCN(C(=O)[C@](C)(O)C(F)(F)F)CC3)c(C#N)c2)cc1Cl [Example 2-16, 2-chloro-4-(5-cyano-6-{4-[(2S)-3,3,3-trifluoro-2-hydroxy-2-methylpropanoyl]piperazin-1-yl}pyridin-3-yl)-N,N-dimethylbenzamide]
95 | 27 | 27 | 4360 | – | CN(C)C(=O)c1ccc(-c2cnc(N3CCN(C(=O)C4(c5ccccc5)CC4)CC3)c(C#N)c2)cc1Cl [Example 2-17, 2-chloro-4-(5-cyano-6-{4-[(1-phenylcyclopropyl)carbonyl]piperazin-1-yl}pyridin-3-yl)-N,N-dimethylbenzamide]
99 | 15 | 43 | 16400 | – | CN(C)C(=O)c1ccc(-c2cnc(N3CCN(C(=O)C(C)(C)c4ccccc4)CC3)c(C#N)c2)cc1Cl [Example 2-18, 2-chloro-4-{5-cyano-6-[4-(2-methyl-2-phenylpropanoyl)piperazin-1-yl]pyridin-3-yl}-N,N-dimethylbenzamide]
77 | 27 | 27 | 60200 | – | CN(C)C(=O)c1ccc(-c2cnc(N3CCN(C(=O)[C@](C)(O)c4ccccc4)CC3)c(C#N)c2)cc1Cl [Example 2-19, 2-chloro-4-(5-cyano-6-{4-[(2R)-2-hydroxy-2-phenylpropanoyl]piperazin-1-yl}pyridin-3-yl)-N,N-dimethylbenzamide]
59 | 147 | 41 | 6290 | – | CN(C)C(=O)c1ccc(-c2cnc(N3CCN(C(=O)c4c(F)cccc4Cl)CC3)c(C#N)c2)cc1Cl [Example 2-21, 2-chloro-4-(6-{4-[(2-chloro-6-fluorophenyl)carbonyl]piperazin-1-yl}-5-cyanopyridin-3-yl)-N,N-dimethylbenzamide]
97 | 43 | 47 | 1140 | – | CN(C)C(=O)c1ccc(-c2cnc(N3CCN(C(=O)C4(c5ccccc5)CCC4)CC3)c(C#N)c2)cc1Cl [Example 2-23, 2-chloro-4-(5-cyano-6-{4-[(1-phenylcyclobutyl)carbonyl]piperazin-1-yl}pyridin-3-yl)-N,N-dimethylbenzamide]
